The values that follow come from patent US9205135B2, “Podocyte pH modulation and uses thereof” (University of Miami, priority 2009, dated 2015).

SMILES strings stand for the structures. Residues, ends and D or L forms follow the SMILES beside them. *: point of attachment. Cbz = O=C(OCc1ccccc1)*; CH2F = FC*

One test has as its system cathepsin L. Briefly: Cathepsin L activity in cultured podocytes, CV-(FR)2 substrate. The following applies: effect of the injury stimulus itself. Format: cell-based, mouse. Here is the method: Subcellular sites of cathepsin L and cathepsin B activity in glomerular extracts were visualized by a fluorogenic substrate, CV-(FR)2, which emits light upon cleavage by cathepsin L or cathepsin B (Biomol).
Measurement of cathepsin L activity: Cathepsin L activities in cultured podocytes and in glomeruli was measured using CV-CatL detection kit (Biomol, Plymouth Meeting, Pa.) as described in the manufacturer's instructions. The fluorophore cresyl violet [CV-(FR)2] substrate becomes florescent after Cat L cleavage of the attached Phe-Arg groups. This substrate easily penetrates the cell membrane and the membranes of the internal cellular organelles, enabling the detection of cathepsin activity within living podocytes.

Another test relates to podocytes. The test can be described thus: Glutamine uptake rate in cultured podocytes. Conditions: injury stimulus. It is filed as cell-based, mouse. From the text:
A podocyte metabolic model was constructed based on available databases as well as mRNA and protein expression data extracted from podocytes. The following podocyte culture models were employed: wildtype (control), LPS and PAN stimulated podocytes (inducible injury models) as well as podocytes with genetic deletion of the alpha3 gene (genetic disease model). All injury cultures increase the uptake of glutamine as well as gluconeogenic aminoacids. In addition, there is increasing ammonia production in diseased podocytes. These changes were predicted by the podocyte metabolic model and confirmed by measuring directly amino acids and ammonia (FIGS. 1A-1D).
Metabolic Flux Analysis emphasizes glutamine utilization pathways for podocyte function: We utilized cultured normal podocytes (control) (15) and three in vitro models for podocyte damage: i) podocytes with α3 integrin deletion (genetic model) (16); ii) podocytes treated with lipopolysaccharides (LPS, immunological model) (17); and iii) podocytes treated with puromycin aminonucleoside (PAN, toxic model) (18). […] Using the podocyte MFA network, we were able to extract podocyte aminoacid and glucose utilization (FIG. 10b-d) that was also independently measured in direct validation studies (data not shown). All analyzed modeling and experimentation data supported the notion that the aminoacid metabolism of podocytes is changed in disease. […]

Another test concerns HEK293. Briefly: Glutamine uptake rate in HEK293 cells. Format: cell-based. On the procedure:
(§1) All together, these experiments discovered a uniform metabolic response for podocytes that are injured.
(§2) Cells, antibodies, and standard techniques: Mouse podocyte cell lines (15) and HEK 293 cells (6) were grown as described previously. NIH 3T3 cells were cultured in Dulbecco's modified Eagle's minimal essential medium (Invitrogen, Carlsbad, Calif.) supplemented with 10% fetal calf serum (Invitrogen) and incubated in a humidified atmosphere of 95% air and 5% CO2 at 37° C. Antibody used for immunostaining are Alexa Fluor 594 phalloidin (Molecular Probes, Eugene, Oreg.). Subcellular fractionation was performed as described previously (6).

The subject of another test is NIH 3T3. Briefly: Glutamine uptake rate in NIH 3T3 cells. It is filed as cell-based. Here is the method: as §1, §2
Another test deals with cathepsin B. The following applies: cited from earlier work.

For `CN(C)c1ncnc2c1ncn2[C@@H]1O[C@H](CO)[C@@H](N)[C@H]1O` [PAN, puromycin aminonucleoside], in the test with cathepsin L, the “cathepsin L activity in podocytes” value is recorded as “stimulate”. The glutamine uptake rate result is recorded as “stimulated” with podocytes, “increasing glutamine uptake rate” in the test with HEK293 and “increasing glutamine uptake rate” in the test with NIH 3T3.

As to `O=C(NC(Cc1ccccc1)C(=O)NC(Cc1ccccc1)C(=O)CF)OCc1ccccc1` (stereo not drawn) [Z-FF-FMK, Z-Phe-Phe-FMK] (Cbz-Phe-Phe-CH2F; configuration not given here), in the test on cathepsin B, the “inhibition of cathepsin B” value was “does not inhibit”.
